What is called IC50 is the concentration that gives 50% inhibition.

Data on 12 compounds can be found in patent publication US11639352B2, “Benzothiazole compounds for the treatment of autoimmune diseases” (Hoffmann-La Roche Inc., priority 2018, dated 2023).

The target in this assay is T1, human TLR7 (Homo sapiens, UniProt Q9NYK1).
T1 sequence (Q9NYK1 27-1049): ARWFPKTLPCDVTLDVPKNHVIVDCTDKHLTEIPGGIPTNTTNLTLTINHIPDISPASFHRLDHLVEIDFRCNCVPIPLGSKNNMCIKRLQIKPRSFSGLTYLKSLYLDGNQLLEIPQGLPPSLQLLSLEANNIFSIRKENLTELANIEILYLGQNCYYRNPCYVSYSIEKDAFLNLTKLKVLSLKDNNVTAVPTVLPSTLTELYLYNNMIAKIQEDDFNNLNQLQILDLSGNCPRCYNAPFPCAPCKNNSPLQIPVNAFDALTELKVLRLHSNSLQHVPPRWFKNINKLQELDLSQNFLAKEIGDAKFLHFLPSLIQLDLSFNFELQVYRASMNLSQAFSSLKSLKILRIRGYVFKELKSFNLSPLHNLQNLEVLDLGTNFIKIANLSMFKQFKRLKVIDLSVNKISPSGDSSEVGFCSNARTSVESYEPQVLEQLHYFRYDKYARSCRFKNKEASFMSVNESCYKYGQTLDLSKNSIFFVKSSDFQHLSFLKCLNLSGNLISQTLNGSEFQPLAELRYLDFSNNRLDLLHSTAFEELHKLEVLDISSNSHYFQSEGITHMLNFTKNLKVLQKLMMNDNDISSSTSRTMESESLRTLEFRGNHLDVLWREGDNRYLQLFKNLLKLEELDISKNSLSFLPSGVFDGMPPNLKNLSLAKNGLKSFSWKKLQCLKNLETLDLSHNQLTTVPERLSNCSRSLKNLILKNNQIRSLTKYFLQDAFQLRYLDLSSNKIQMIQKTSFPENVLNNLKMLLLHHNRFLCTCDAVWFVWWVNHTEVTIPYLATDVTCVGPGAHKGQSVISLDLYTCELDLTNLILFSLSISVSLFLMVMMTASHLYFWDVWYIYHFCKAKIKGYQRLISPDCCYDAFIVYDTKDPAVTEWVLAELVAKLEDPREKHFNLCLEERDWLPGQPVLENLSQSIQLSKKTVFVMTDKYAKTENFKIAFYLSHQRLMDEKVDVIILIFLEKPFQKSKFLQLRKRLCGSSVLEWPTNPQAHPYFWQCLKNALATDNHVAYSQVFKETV
Description: HEK293-Blue-hTLR-7 cells assay (SEAP reporter, R848 stimulation). Particulars: HEK293-Blue-hTLR7 cells, R848 ligand, 20 hrs incubation, antagonist. Format: cell-based. The method, then: The following tests were carried out in order to determine the activity of the compounds of formula (I) in HEK293-Blue-hTLR-7/8/9 cells assay.
HEK293-Blue-hTLR-7 Cells Assay:
A stable HEK293-Blue-hTLR-7 cell line was purchased from InvivoGen (Cat. #: hkb-htlr7, San Diego, Calif., USA). These cells were originally designed for studying the stimulation of human TLR7 by monitoring the activation of NF-κB. A SEAP (secreted embryonic alkaline phosphatase) reporter gene was placed under the control of the IFN-β minimal promoter fused to five NF-κB and AP-1-binding sites. The SEAP was induced by activating NF-κB and AP-1 via stimulating HEK-Blue hTLR7 cells with TLR7 ligands. Therefore the reporter expression was declined by TLR7 antagonist under the stimulation of a ligand, such as R848 (Resiquimod), for incubation of 20 hrs. The cell culture supernatant SEAP reporter activity was determined using QUANTI-Blue™ kit (Cat. #: rep-qb1, Invivogen, San Diego, Calif., USA) at a wavelength of 640 nm, a detection medium that turns purple or blue in the presence of alkaline phosphatase.
HEK293-Blue-hTLR7 cells were incubated at a density of 250,000˜450,000 cells/mL in a volume of 170 μL in a 96-well plate in Dulbecco's Modified Eagle's medium (DMEM) containing 4.5 g/L glucose, 50 U/mL penicillin, […], […], 2 mM L-glutamine, 10% (v/v) heat-inactivated fetal bovine serum with addition of 20 μL test compound in a serial dilution in the presence of final DMSO at 1% and 10 μL of 20 uM R848 in above DMEM, perform incubation under 37° C. in a CO2 incubator for 20 hrs. Then 20 μL of the supernatant from each well was incubated with 180 μL Quanti-blue substrate solution at 37° C. for 2 hrs and the absorbance was read at 620˜655 nm using a spectrophotometer. The signalling pathway that TLR7 activation leads to downstream NF-κB activation has been widely accepted, and therefore similar reporter assay was modified for evaluating TLR7 antagonist.
Compound `C[C@@H]1CN(c2ccc(C#N)c3ncsc23)C[C@H](CN2CCC3(CCCNC3)C2)O1` (stereo partly drawn) [Example 1, 7-[(2S,6R)-2-(2,9-diazaspiro[4.5]decan-2-ylmethyl)-6-methyl-morpholin-4-yl]-1,3-benzothiazole-4-carbonitrile] gave a concentration for half-maximal inhibition (IC50) of 0.011 µM. Next, `C[C@@H]1CN(c2ccc(C#N)c3ncsc23)C[C@H](CN2CCC(N)CC2)O1` [Example 2, 7-[(2S,6R)-2-[(4-amino-1-piperidyl)methyl]-6-methyl-morpholin-4-yl]-1,3-benzothiazole-4-carbonitrile]: 0.026 µM; `C[C@@H]1CN(c2ccc(C#N)c3ncsc23)C[C@H](CN2CCC3(CCCNC3)CC2)O1` [Example 3, 7-[(2S,6R)-2-(2,9-diazaspiro[5.5]undecan-9-ylmethyl)-6-methyl-morpholin-4-yl]-1,3-benzothiazole-4-carbonitrile]: 0.019 µM; `C[C@@H]1CN(c2ccc(C#N)c3ncsc23)C[C@H](CN2CC3(CCCNC3)C2)O1` [Example 4, 7-[(2S,6R)-2-(2,8-diazaspiro[3.5]nonan-2-ylmethyl)-6-methyl-morpholin-4-yl]-1,3-benzothiazole-4-carbonitrile]: 0.012 µM. As for `C[C@@H]1CN(c2ccc(C#N)c3ncsc23)C[C@H](CN2CCC3(CCNCC3)CC2)O1` [Example 5, 7-[(2S,6R)-2-(3,9-diazaspiro[5.5]undecan-3-ylmethyl)-6-methyl-morpholin-4-yl]-1,3-benzothiazole-4-carbonitrile], the figure is 0.048 µM; as for `C[C@@H]1CN(c2ccc(C#N)c3ncsc23)C[C@H](CN2CCC3(CCNC3)CC2)O1` [Example 6, 7-[(2S,6R)-2-(2,8-diazaspiro[4.5]decan-8-ylmethyl)-6-methyl-morpholin-4-yl]-1,3-benzothiazole-4-carbonitrile], 0.041 µM. As for `C[C@@H]1CN(c2ccc(C#N)c3ncsc23)C[C@H](CN2CCC(N3CCCCC3)CC2)O1` [Example 7, 7-[(2R,6S)-2-methyl-6-[[4-(1-piperidyl)-1-piperidyl]methyl]morpholin-4-yl]-1,3-benzothiazole-4-carbonitrile], the figure is 0.013 µM; as for `C[C@@H]1CN(c2ccc(C#N)c3ncsc23)C[C@H](CN2[C@@H]3CC[C@H]2C[C@@H](N)C3)O1` [Example 8, Endo-7-[(2S,6R)-2-[[(1R,5S)-3-amino-8-azabicyclo[3.2.1]octan-8-yl]methyl]-6-methyl-morpholin-4-yl]-1,3-benzothiazole-4-carbonitrile], 0.016 µM; as for `C[C@@H]1CN(c2ccc(C#N)c3ncsc23)C[C@H](CN2[C@@H]3CC[C@H]2C[C@H](N)C3)O1` [Example 9, Exo-7-[(2S,6R)-2-[[(1S,5R)-3-amino-8-azabicyclo[3.2.1]octan-8-yl]methyl]-6-methyl-morpholin-4-yl]-1,3-benzothiazole-4-carbonitrile], 0.045 µM. On to `C[C@@H]1CN(c2ccc(C#N)c3ncsc23)C[C@H](CN2CCC3(CCCN(C)C3)CC2)O1` [Example 10, 7-[(2R,6S)-2-methyl-6-[(2-methyl-2,9-diazaspiro[5.5]undecan-9-yl)methyl]morpholin-4-yl]-1,3-benzothiazole-4-carbonitrile], for which inhibition was half-maximal at 0.015 µM (IC50). Next, `C[C@@H]1CN(c2ccc(C#N)c3ncsc23)C[C@H](C(=O)NC2CCN(C)CC2)O1` [Example 11, (2R,6R)-4-(4-cyano-1,3-benzothiazol-7-yl)-6-methyl-N-(1-methyl-4-piperidyl)morpholine-2-carboxamide]: 0.005 µM; `C[C@@H]1CN(c2ccc(C#N)c3ncsc23)C[C@H](C(=O)NCC2CN(C)CCO2)O1` (stereo partly drawn) [Example 12, (2R,6R)-4-(4-cyano-1,3-benzothiazol-7-yl)-6-methyl-N-[(4-methylmorpholin-2-yl)methyl]morpholine-2-carboxamide]: 0.004 µM.
